Drawing on ChEMBL document CHEMBL5241089, “Matrix metalloproteinases inhibitors in idiopathic pulmonary fibrosis: Medicinal chemistry perspectives” (Eur J Med Chem, 2021), this text covers IC50 for two compounds.

Experiment [1] has as its target T1, Stromelysin-2 (Homo sapiens, UniProt P09238). As to the kind of experiment: Inhibition of MMP-10 (unknown origin).
The target of experiment [2] is T1, Stromelysin-2. As to the kind of experiment: Inhibition of MMP10 (unknown origin) using FRET peptide.

As a reminder, the IC50 is the concentration that gives 50% inhibition. Low readings indicate inhibition by little substance, high ones a need for much substance.

T1 sequence (P09238 whole entry): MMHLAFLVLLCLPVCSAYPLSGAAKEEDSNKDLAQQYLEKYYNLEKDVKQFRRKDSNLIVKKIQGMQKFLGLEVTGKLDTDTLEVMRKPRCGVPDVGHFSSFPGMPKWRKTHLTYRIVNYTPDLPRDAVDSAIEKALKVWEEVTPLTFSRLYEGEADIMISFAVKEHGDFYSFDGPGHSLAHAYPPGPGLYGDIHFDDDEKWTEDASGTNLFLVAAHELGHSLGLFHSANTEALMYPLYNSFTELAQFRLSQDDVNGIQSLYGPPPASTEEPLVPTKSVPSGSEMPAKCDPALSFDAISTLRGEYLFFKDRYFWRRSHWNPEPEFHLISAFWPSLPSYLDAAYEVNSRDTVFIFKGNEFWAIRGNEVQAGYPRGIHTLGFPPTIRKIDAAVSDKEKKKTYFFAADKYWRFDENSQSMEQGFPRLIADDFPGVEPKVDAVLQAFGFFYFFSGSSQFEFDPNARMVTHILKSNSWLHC

`CC(=O)N1c2nc(C)cc(=O)n2[C@H](c2ccc(Br)cc2)N1C(C)=O` came in with an IC50 against Stromelysin-2 [1] of 24 nM.
In turn, `O=C(O)CCCCCCCCOc1ccc(CC(=O)Nc2ccc3c(c2)C(=O)N(Cc2ccccc2)C3=O)cc1` registered an IC50 at Stromelysin-2 [2] of 1200 nM.
